In US7714134B2, “Compounds and use of tetrahydropyridothiophenes” (4SC AG, priority 2004, dated 2010):

Assays:
[1] = system: RKO (RKOp27) human colon adenocarcinoma cells; assay: Alamar Blue cell viability assay, anti-proliferative/cytotoxic activity, RKO p27 uninduced; assay type: cell-based; conditions: RKOp27, 72 h, proliferating cells, absence of the inducer Ponasterone A, 72 hours incubation
Procedure: The anti-proliferative/cytotoxic activity of the compounds described herein, can be tested on subdlones of RKO (RKOp27) human colon adenocarcinoma cells (Schmidt et al., Oncogene 19, 2423-2429; 2000) using the Alamar Blue cell viability assay (described in O'Brien et al. Eur J Biochem 267, 5421-5426, 2000). The compounds are dissolved as 20 mM solutions in dimethylsulfoxide (DMSO) and subsequently diluted in semi-logarithmic steps. DMSO dilutions are further diluted 1:100 into Dulbecco's modified Eagle's medium (DMEM) containing 10% fetal calf serum to a final concentration twice as much as the final concentration in the test. RKO subclones are seeded into 96 well flat bottom plates at a density of 4000 cells per well in a volume of 50 µl per well. 24 hours after seeding the 50 μl each of the compound dilutions in DMEM medium are added into each well of the 96 Well plate. Each compound dilution is tested as quadruplicates. Wells containing untreated control cells are filled with 50 μl DMEM medium containing 1% DMSO. The cells are then incubated with the substances for 72 hours at 37° C. in a humidified atmosphere containing 5% carbon dioxide. To determine the viability of the cells, 10 μl of an Alamar Blue solution (Biosource) are added and the fluorescence is measured at an extinction of 544 nm and an emission of 590 nm. For the calculation of the cell viability the emission value from untreated cells is set as 100% viability and the emission rates of treated cells are set in relation to the values of untreated cells. Viabilities are expressed as % values.
The corresponding IC50 values of the compounds for anti-proliferative/cytotoxic activity are determined from the concentration-effect curves.
Representative IC50 values for anti-proliferation/cytotoxicity determined for the compounds mentioned and numbered as Examples in the examples above follow from the following table A (1st column), in which the numbers of the compound correspond to the numbers of the examples. Any or all of the compounds according to the present invention which are listed in the Table A, as well as their salts, are to be mentioned as a particular interesting subject of the present invention.

[2] = system: RKO colon adenocarcinoma cells (RKOp27) arrested by expression of ectopic p27Kip1; assay: Alamar Blue cell viability assay, cell cycle specific mode of action, RKO p27 induced (arrested by Ponasterone A-induced p27Kip1); assay type: cell-based; conditions: Homo sapiens, RKOp27, 72 h, cells arrested by p27Kip1 induced with 10 μM Ponasterone A, 72 hours incubation
Procedure: To determine the cell cycle specific mode of action, subdlones of RKO colon adenocarcinoma cells (RKOp27 or RKOp21 as described by Schmidt et al. in Oncogene 19, 2423-2429; 2000) are seeded into 96 well flat bottom plates at a density of 16000 cells per well in a volume of 50 μl per well in DMEM growth medium with 10% FCS containing 10 μM Ponasterone A. 24 hours after seeding the 50 μl each of the compound dilutions in DMEM medium are added into each well of the 96 Well plate. Each compound dilution is tested as quadruplicates. Wells containing untreated control cells are filled with 50 μl DMEM medium containing 1% DMSO. The cells are then incubated with the substances for 72 hours at 37° C. in a humidified atmosphere containing 5% carbon dioxide. To determine the viability of the cells, 10 μl of an Alamar Blue solution (Biosource) are added and the fluorescence was measured at an extinction of 544 nm and an emission of 590 nm. For the calculation of the cell viability the emission value from untreated cells is set as 100% viability and the emission rates of treated cells are set in relation to the values of untreated cells. Viabilities are expressed as % values. Viability is compared of proliferating cells grown in the absence of the inducer Ponasterone A, versus viability of cells arrested by the expression of ectopic p27Kip1 induced by Ponasterone A. The data of this experimental setting are summarized in table A (2nd column).

| Compound | IC50 [1] [µM] | IC50 [2] [µM] |
| --- | --- | --- |
| N#Cc1c(NC(=O)c2ccccc2)sc2c1CCN(C(=O)OCC(O)CO)C2 (stereo not shown) [Compound 76, 3-Cyano-2-[(1-phenyl-methanoyl)-amino]-4,7-dihydro-5H-thieno[2,3-c]pyridine-6-carboxylic acid 2,3-dihydroxy-propyl ester] | ≤ 3 | > 60 |
| CCOC(=O)N1CCc2c(sc(NC(=O)c3cccc(C)c3)c2C#N)C1 [Compound 51, 3-Cyano-2-[(1-m-tolyl-methanoyl)-amino]-4,7-dihydro-5H-thieno[2,3-c]pyridine-6-carboxylic acid ethyl ester] | ≤ 3 | > 60 |
| CN(C)C(=O)CCC(=O)N1CCc2c(sc(NC(=O)c3ccccc3)c2C#N)C1 [Compound 83, N-[3-Cyano-6-(3-dimethylcarbamoyl-propanoyl)-4,5,6,7-tetrahydro-thieno[2,3-c]pyridin-2-yl]-benzamide] | ≤ 3 | > 100 |
| N#Cc1c(NC(=O)c2ccccc2)sc2c1CCN(C(=O)OCCc1ccncc1)C2 [Compound 73, 3-Cyano-2-[(1-phenyl-methanoyl)-amino]4,7-dihydro-5H-thieno[2,3-c]pyridine-6-carboxylic acid 2-pyridin4-yl-ethyl ester] | ≤ 3 | > 60 |
| N#Cc1c(NC(=O)c2ccccc2)sc2c1CCN(C(=O)SCCC(=O)O)C2 [Compound 103, 3-(1-{3-Cyano-2-[(1-phenyl-methanoyl)-amino]-4,7-dihydro-5H-thieno[2,3-c]pyridin-6-yl}-methanoylsulfanyl)-propionic acid] | ≤ 3 | > 100 |
| CCNC(=O)N1CCc2c(sc(NC(=O)c3ccccc3)c2C#N)C1 [Compound 98, 3-Cyano-2-[(1-phenyl-methanoyl)-amino]-4,7-dihydro-5H-thieno[2,3-c]pyridine-6-carboxylic acid ethylamide] | ≤ 3 | > 100 |
| CCCC(=O)N1CCc2c(sc(NC(=O)c3cccc(OC)c3)c2C#N)C1 [Compound 25, N-(6-Butyryl-3-cyano-4,5,6,7-tetrahydro-thieno[2,3-c]pyridin-2-yl)-3-methoxy-benzamide] | ≤ 2 | > 100 |
| CCOC(=O)N1CCc2c(sc(NC(=O)c3ccccc3[N+](=O)[O-])c2C#N)C1 [Compound 46, 3-Cyano-2-{[1-(2-nitro-phenyl)-methanoyl]-amino}-4,7-dihydro-5H-thieno[2,3-c]pyridine-6-carboxylic acid ethyl ester] | ≤ 3 | > 60 |
| COC(=O)CCSC(=O)N1CCc2c(sc(NC(=O)c3ccccc3)c2C#N)C1 [Compound 102, 3-(1{3-Cyano-2-[(1-phenyl-methanoyl)-amino]-4,7-dihydro-5H-thieno[2,3-c]pyridin-6-yl}-methanoylsulfanyl)-propionic acid methyl ester] | ≤ 3 | > 100 |
| COc1cccc(C(=O)Nc2sc3c(c2C#N)CCN(C(C)=O)C3)c1 [Compound 24, N-(6-Acetyl-3-cyano-4,5,6,7-tetrahydro-thieno[2,3-c]pyridin-2-yl)-3-methoxy-benzamide] | ≤ 2 | > 100 |
| N#Cc1c(NC(=O)c2ccccc2)sc2c1CCN(C(=O)Cc1c[nH]c3ccccc13)C2 [Compound 36, N-[3-Cyano-6-(2-1H-indol-3-yl-ethanoyl)-4,5,6,7-tetrahydro-thieno[2,3-c]pyridin-2-yl]-benzamide] | ≤ 3 | > 60 |
| COc1cc(OC)cc(C(=O)Nc2sc3c(c2C#N)CCN(C(C)=O)C3)c1 [Compound 26, N-(6-Acetyl-3-cyano-4,5,6,7-tetrahydro-thieno[2,3-c]pyridin-2-yl)-3,5-dimethoxy-benzamide] | ≤ 2 | > 100 |
| CC(C)(C)OC(=O)N1CCc2c(sc(NC(=O)c3ccccc3)c2C#N)C1 [Compound 1, N-(6-tert.-Butyloxycarbonyl-3-cyano-4,5,6,7-tetrahydro-thieno[2,3-c]pyridin-2-yl)-benzamide] | ≤ 2 | > 100 |
| COC(=O)N1CCc2c(sc(NC(=O)c3ccccc3)c2C#N)C1 [Compound 54, 3-Cyano-2-[(1-phenyl-methanoyl)-amino]-4,7-dihydro-5H-thieno[2,3-c]pyridine-6-carboxylic acid methyl ester] | ≤ 3 | > 60 |
| CCOC(=O)N1CCc2c(sc(NC(=O)c3ccc(C)cc3)c2C#N)C1 [Compound 50, 3-Cyano-2-[(1-p-tolyl-methanoyl)-amino]-4,7-dihydro-5H-thieno[2,3-c]pyridine-6-carboxylic acid ethyl ester] | ≤ 3 | > 60 |
| N#Cc1c(NC(=O)c2ccccc2)sc2c1CCN(C(=O)OCCn1ccnc1)C2 [Compound 95] | ≤ 3 | > 100 |
| CCOC(=O)N1CCc2c(sc(NC(=O)c3ccc([N+](=O)[O-])cc3)c2C#N)C1 [Compound 44, 3-Cyano-2-{[1-(4-nitro-phenyl)-methanoyl]-amino}-4,7-dihydro-5H-thieno[2,3-c]pyridine-6-carboxylic acid ethyl ester] | ≤ 3 | > 60 |
| CCCCCOC(=O)N1CCc2c(sc(NC(=O)c3ccccc3)c2C#N)C1 [Compound 14] | ≤ 2 | > 100 |
| N#Cc1c(NC(=O)c2ccccc2)sc2c1CCN(C(=O)CCCO)C2 [Compound 88, N-[3-Cyano-6-(4-hydroxy-butanoyl)-4,5,6,7-tetrahydro-thieno[2,3-c]pyridin-2-yl]-benzamide] | ≤ 3 | > 100 |
| COCCOCCOC(=O)N1CCc2c(sc(NC(=O)c3ccccc3)c2C#N)C1 [Compound 75, 3-Cyano-2-[(1-phenyl-methanoyl)amino]-4,7-dihydro-5H-thieno[2,3-c]pyridine-6-carboxylic acid 2-(2-methoxy-ethoxy)-ethyl ester] | ≤ 3 | > 60 |
| CC(C)COC(=O)N1CCc2c(sc(NC(=O)c3ccccc3)c2C#N)C1 [Compound 56, 3-Cyano-2-[(1-phenyl-methanoyl)-amino]-4,7-dihydro-5H-thieno[2,3-c]pyridine-6-carboxylic acid isobutyl ester] | ≤ 3 | > 60 |
| CCCCOC(=O)N1CCc2c(sc(NC(=O)c3ccccc3)c2C#N)C1 [Compound 58, 3-Cyano-2-[(1-phenyl-methanoyl)-amino]-4,7-dihydro-5H-thieno[2,3-c]pyridine-6-carboxylic acid butyl ester] | ≤ 3 | > 60 |
| N#Cc1c(NC(=O)c2ccccc2)sc2c1CCN(C(=O)OCc1cccnc1)C2 [Compound 63, 3-Cyano-2-[(1-phenyl-methanoyl)-amino]-4,7-dihydro-5H-thieno[2,3-c]pyridine-6carboxylic acid pyridin-3-ylmethyl ester] | ≤ 3 | > 60 |
| CC(=O)CCC(=O)N1CCc2c(sc(NC(=O)c3ccccc3)c2C#N)C1 [Compound 27, N-[3-Cyano-6-(4-oxo-pentanoyl)-4,5,6,7-tetrahydro-thieno[2,3-c]pyridin-2-yl]-benzamide] | ≤ 2 | > 100 |
| N#Cc1c(NC(=O)c2ccccc2)sc2c1CCN(C(=O)OCCO)C2 [Compound 97, 3-Cyano-2-[(1-phenyl-methanoyl)-amino]-4,7-dihydro-5H-thieno[2,3-c]pyridine-6-carboxylic acid 2-hydroxy-ethyl ester] | ≤ 3 | > 100 |
| CC(=O)OCC(=O)N1CCc2c(sc(NC(=O)c3ccccc3)c2C#N)C1 [Compound 84, Acetic acid 2-3-cyano-2-[(1-phenyl-methanoyl)-amino]-4,7-dihydro-5H-thieno[2,3-c]pyridin-6-yl-2-oxo-ethyl ester] | ≤ 3 | > 100 |
